Assay results reported in patent publication US12662469B2 (SIRONAX LTD, priority 2018, dated 2026).

The compounds below were run on Cell Necrosis (assay: Cell necrosis assay / cell viability assay (necrosis inhibitor activity)). Conditions: necrosis inhibitor activity; compounds outside 14-191; read-out: EC50.
Type: cell-based

| SMILES | EC50 [µM] |
| --- | --- |
| NC(=O)c1nc(OC2CN(C(=O)N3N=CC[C@H]3c3cc(F)cc(F)c3)C2)sc1Cl [Compound 274, (S)-5-chloro-2-((1-(5-(3,5-difluorophenyl)-4,5-dihydro-1H-pyrazole-1-carbonyl)azetidin-3-yl)oxy)thiazole-4-carboxamide] | 0.001 to 1 |
| O=C(c1nc(OC2CN(C(=O)N3N=CC[C@H]3c3cc(F)cc(F)c3)C2)sc1Cl)N1CCC1 [Compound 275] | 0.001 to 1 |
| O=C(N1CC(Oc2nc3ccccc3s2)C1)N1N=CCC1c1cc(F)cc(F)c1 (centres unmarked) [Compound 276, (3-(benzo[d]thiazol-2-yloxy)azetidin-1-yl)(5-(3,5-difluorophenyl)-4,5-dihydro-1H-pyrazol-1-yl)methanone] | 0.001 to 1 |
| O=C1CCc2ccc(C=C3CN(C(=O)N4N=CCC4c4cc(F)cc(F)c4)C3)cc2N1 (centres unmarked) [Compound 277, 7-((1-(5-(3,5-difluorophenyl)-4,5-dihydro-1H-pyrazole-1-carbonyl)azetidin-3-yildene)methyl)-3,4-dihydroquinolin-2(1H)-one] | 0.001 to 1 |
| O=C1COc2ccc(C=C3CN(C(=O)N4N=CC[C@H]4c4cc(F)cc(F)c4)C3)cc2N1 [Compound 278, 6-((1-(5-(3,5-difluorophenyl)-4,5-dihydro-1H-pyrazole-1-carbonyl)azetidin-3-ylidene)methyl)-2H-benzo[b][1,4]oxazin-3(4H)-one] | 0.001 to 1 |
| O=C(N1CCN(c2ncc3cc[nH]c3n2)CC1)N1N=CC[C@H]1c1cc(F)cc(F)c1 [Compound 279, (S)-(4-(7H-pyrrolo[2,3-d]pyrimidin-2-yl)piperazin-1-yl)(5-(3,5-difluorophenyl)-4,5-dihydro-1H-pyrazol-1-yl)methanone] | 0.001 to 1 |
| NC(=O)c1cnc(OC2CN(C(=O)N3N=CC[C@H]3c3cc(F)cc(F)c3)C2)s1 [Compound 280, (S)-2-((1-(5-(3,5-difluorophenyl)-4,5-dihydro-1H-pyrazole-1-carbonyl)azetidin-3-yl)oxy)thiazole-5-carboxamide] | 0.001 to 1 |
| N#Cc1csc(OC2CN(C(=O)N3N=CCC3c3cncc(F)c3)C2)n1 (centres unmarked) [Compound 281, 2-((1-(5-(5-fluoropyridin-3-yl)-4,5-dihydro-1H-pyrazole-1-carbonyl)azetidin-3-yl)oxy)thiazole-4-carbonitrile] | 0.001 to 1 |
| O=C(N1CC(=Cc2ccc3c(c2)NC(=O)C3(F)F)C1)N1N=CC[C@H]1c1cc(F)cc(F)c1 [Compound 283, (S)-6-((1-(5-(3,5-difluorophenyl)-4,5-dihydro-1H-pyrazole-1-carbonyl)azetidin-3-ylidene)methyl)-3,3-difluoroindolin-2-one] | 0.001 to 1 |
| O=C(N1CC(=Cc2ccc3[nH]cnc3c2)C1)N1N=CC[C@H]1c1cc(F)cc(F)c1 [Compound 284] | 0.001 to 1 |
| O=C(N1CC(=Cc2cc3[nH]nc(Cl)c3cc2F)C1)N1N=CC[C@H]1c1cc(F)cc(F)c1 [Compound 285, (S)-(3-((3-chloro-5-fluoro-1H-indazol-6-yl)methylene)azetidin-1-yl)(5-(3,5-difluorophenyl)-4,5-dihydro-1H-pyrazol-1-yl)methanone] | 0.001 to 1 |
| O=C(N1CC(=Cc2cc3[nH][nH]c(=O)c3cc2F)C1)N1N=CC[C@H]1c1cc(F)cc(F)c1 [Compound 286, (S)-6-((1-(5-(3,5-difluorophenyl)-4,5-dihydro-1H-pyrazole-1-carbonyl)azetidin-3-ylidene)methyl)-5-fluoro-1H-315-indazol-3-one] | 0.001 to 1 |
| O=C(N1CCN(c2ncc(F)c(OCCN3CCOCC3)n2)CC1)N1N=CC[C@H]1c1cc(F)cc(F)c1 [Compound 287, (S)-(5-(3,5-difluorophenyl)-4,5-dihydro-H-pyrazol-1-yl)(4-(5-fluoro-4-(2-morpholinoethoxy)pyrimidin-2-yl)piperazin-1-yl)methanone] | 0.001 to 1 |
| O=C(N1CC(=Cc2ccn3nccc3c2)C1)N1N=CC[C@H]1c1cc(F)cc(F)c1 [Compound 288, (S)-(5-(3,5-difluorophenyl)-4,5-dihydro-1H-pyrazol-1-yl)(3-(pyrazolo[1,5-a]pyridin-5-ylmethylene)azetidin-1-yl)methanone] | 0.001 to 1 |
| Cc1n[nH]c2cc(C=C3CN(C(=O)N4N=CC[C@H]4c4cc(F)cc(F)c4)C3)ccc12 [Compound 289, (S)-(5-(3,5-difluorophenyl)-4,5-dihydro-1H-pyrazol-1-yl)(3-((3-methyl-1H-indazol-6-yl)methylene)azetidin-1-yl)methanone] | 0.001 to 1 |
| O=C(CC1CCCC1)Nc1nc(N2CCN(C(=O)N3N=CC[C@H]3c3cc(F)cc(F)c3)CC2)ncc1F [Compound 290] | 0.001 to 1 |
| CC(C)CC(=O)Nc1nc(N2CCN(C(=O)N3N=CC[C@H]3c3cc(F)cc(F)c3)CC2)ncc1F [Compound 291, (S)—N-(2-(4-(5-(3,5-difluorophenyl)-4,5-dihydro-1H-pyrazole-1-carbonyl)piperazin-1-yl)-5-fluoropyrimidin-4-yl)-3-methylbutanamide] | 0.001 to 1 |
| CC(C)C(=O)Nc1nc(N2CCN(C(=O)N3N=CC[C@H]3c3cc(F)cc(F)c3)CC2)ncc1F [Compound 292, (S)—N-(2-(4-(5-(3,5-difluorophenyl)-4,5-dihydro-1H-pyrazole-1-carbonyl)piperazin-1-yl)-5-fluoropyrimidin-4-yl)isobutyramide] | 0.001 to 1 |

| SMILES | EC50 [µM] |
| --- | --- |
| O=C(Nc1nc(N2CCN(C(=O)N3N=CC[C@H]3c3cc(F)cc(F)c3)CC2)ncc1F)C1CCOCC1 [Compound 293, (S)—N-(2-(4-(5-(3,5-difluorophenyl)-4,5-dihydro-1H-pyrazole-1-carbonyl)piperazin-1-yl)-5-fluoropyrimidin-4-yl)tetrahydro-2H-pyran-4-carboxamide] | 0.001 to 1 |
| O=C(N1CC(=Cc2ccc(Cl)nc2F)C1)N1N=CC[C@H]1c1cncc(F)c1 [Compound 294, (S)-(3-((6-chloro-2-fluoropyridin-3-yl)methylene)azetidin-1-yl)(5-(5-fluoropyridin-3-yl)-4,5-dihydro-1H-pyrazol-1-yl)methanone] | 0.001 to 1 |
| NC(=O)c1ccc(C=C2CN(C(=O)N3N=CC[C@H]3c3cc(F)cc(F)c3)C2)cn1 [Compound 295, (S)-5-((1-(5-(3,5-difluorophenyl)-4,5-dihydro-1H-pyrazole-1-carbonyl)azetidin-3-ylidene)methyl)picolinamide] | 0.001 to 1 |
| O=C(N1CC(=Cc2cc3[nH]nc(F)c3cc2F)C1)N1N=CCC1c1ccccc1 (centres unmarked) [Compound 296, (3-((3,5-difluoro-1H-indazol-6-yl)methylene)azetidin-1-yl)(5-phenyl-4,5-dihydro-1H-pyrazol-1-yl)methanone] | 0.001 to 1 |
| N#Cc1cc(F)cc([C@@H]2CC=NN2C(=O)N2CC(=Cc3cc4[nH]nc(F)c4cc3F)C2)c1 [Compound 297, (S)-3-(1-(3-((3,5-difluoro-1H-indazol-6-yl)methylene)azetidine-1-carbonyl)-4,5-dihydro-1H-pyrazol-5-yl)-5-fluorobenzonitrile] | 0.001 to 1 |
| Nc1ccn(CC2CN(C(=O)N3N=CC[C@H]3c3cc(F)cc(F)c3)C2)c1 [Compound 298, (S)-(3-((3-amino-H-pyrrol-1-yl)methyl)azetidin-1-yl)(5-(3,5-difluorophenyl)-4,5-dihydro-1H-pyrazol-1-yl)methanone] | 0.001 to 1 |
| Nc1cc(F)c(F)c(C=C2CN(C(=O)N3N=CC[C@H]3c3cc(F)cc(F)c3)C2)c1 [Compound 299, (S)-(3-(5-amino-2,3-difluorobenzylidene)azetidin-1-yl)(5-(3,5-difluorophenyl)-4,5-dihydro-1H-pyrazol-1-yl)methanone] | 0.001 to 1 |
| O=C(N1CC(=Cc2cc3[nH]nc(F)c3cc2F)C1)N1N=CC[C@H]1c1cc(F)cc(F)c1 [Compound 301, (S)-(3-((3,5-difluoro-1H-indazol-6-yl)methylene)azetidin-1-yl)(5-(3,5-difluorophenyl)-4,5-dihydro-1H-pyrazol-1-yl)methanone] | 0.001 to 1 |
| O=C(N1CC(=Cc2cc3[nH]nc(F)c3cc2F)C1)N1N=CCC1c1ccccc1 (centres unmarked) [Compound 302, (3-((3,5-difluoro-1H-indazol-6-yl)methylene)azetidin-1-yl)(5-phenyl-4,5-dihydro-1H-pyrazol-1-yl)methanone] | 0.001 to 1 |
| CNc1nc(N2CCN(C(=O)N3N=CC[C@H]3c3cc(F)cc(F)c3)CC2)ncc1F [Compound 303, (S)-(5-(3,5-difluorophenyl)-4,5-dihydro-1H-pyrazol-1-yl)(4-(5-fluoro-4-(methylamino)pyrimidin-2-yl)piperazin-1-yl)methanone] | 0.001 to 1 |
| O=C(N1CC(=Cc2c(F)cc(F)cc2F)C1)N1N=CCC1c1cc(F)cc(F)c1 (centres unmarked) [Compound 304, (5-(3,5-difluorophenyl)-4,5-dihydro-1H-pyrazol-1-yl)(3-(2,4,6-trifluorobenzylidene)azetidin-1-yl)methanone] | 0.001 to 1 |
| O=C(N1CC(=Cc2ccc(F)nc2)C1)N1N=CCC1c1cc(F)cc(F)c1 (centres unmarked) [Compound 305, (5-(3,5-difluorophenyl)-4,5-dihydro-1H-pyrazol-1-yl)(3-((6-fluoropyridin-3-yl)methylene)azetidin-1-yl)methanone] | 0.001 to 1 |
| O=C(N1CC(=Cc2ccc(F)cc2)C1)N1N=CCC1c1cc(F)cc(F)c1 (centres unmarked) [Compound 306, (5-(3,5-difluorophenyl)-4,5-dihydro-1H-pyrazol-1-yl)(3-(4-fluorobenzylidene)azetidin-1-yl)methanone] | 0.001 to 1 |
| O=C(N1CC(=Cc2ccc(F)nc2)C1)N1N=CCC1c1cncc(F)c1 (centres unmarked) [Compound 307, (5(5-fluoropyridin-3-yl)-4,5-dihydro-H-pyrazol-1-yl)(3-((6-fluoropyridin-3-yl)methylene)azetidin-1-yl)methanone] | 0.001 to 1 |
| O=C(N1CC(=Cc2ccc(F)cc2F)C1)N1N=CCC1c1cncc(F)c1 (centres unmarked) [Compound 308, (3-(2,4-difluorobenzylidene)azetidin-1-yl)(5-(5-fluoropyridin-3-yl)-4,5-dihydro-1H-pyrazol-1-yl)methanone] | 0.001 to 1 |
| O=C(N1CC(=Cc2ccc(F)cc2)C1)N1N=CCC1c1cncc(F)c1 (centres unmarked) [Compound 309, (3-(4-fluorobenzylidene)azetidin-1-yl)(5-(5-fluoropyridin-3-yl)-4,5-dihydro-1H-pyrazol-1-yl)methanone] | 0.001 to 1 |
| O=C(N1CC(=Cc2ccc3cn[nH]c3c2)C1)N1N=CC[C@H]1c1cc(F)cc(F)c1 [Compound 310, (S)-(3-((1H-indazol-6-yl)methylene)azetidin-1-yl)(5-(3,5-difluorophenyl)-4,5-dihydro-1H-pyrazol-1-yl)methanone] | 0.001 to 1 |
